This note sets out measurements from EPA's ToxValDB 9.5.

Series [1] concerns Rattus norvegicus. As to conditions: oral.
Series [2] deals with Rattus norvegicus. As to conditions: oral, gavage; for LD50: acute.
For series [3], the system named is Rattus norvegicus.
Setting [4] is: acute, duration: 4 hours, inhalation, M, Bone Marrow: Bone Marrow Histopathology + Spleen: Spleen Histopathology + Whole Body: Clinical Signs.
[5] abbreviates: reproduction developmental, duration: 9 days, inhalation, F, generation: P0, P0: Whole Body: Maternal Body Weight, Initial.
Setting [6] is: reproduction developmental, duration: 9 days, inhalation, M/F, generation: F1, F1: Vertebra: Thoracic Centrum, Dipartite Ossification.
[7] abbreviates: reproduction developmental, duration: 14 days, oral, gavage, F, Crj:CD, generation: P0, P0: Uterus: >=6 Days of Diestrus + P0: Uterus: Estrous Cycle, Length + P0: Whole Body: Delivery Index + P0: Whole Body: Length of Gestation….
Where [8] appears, read: reproduction developmental, duration: 14 days, oral, gavage, M/F, Crj:CD, generation: F1, F1: Whole Body: Live Birth Index + F1: Whole Body: Live Pups Born + F1: Whole Body: Survival + F1: Whole Body: Viability Index.
The mark [9] stands for this setting: reproduction developmental, duration: 42 days, oral, gavage, M, Crj:CD, generation: P0, P0: Whole Body: Percent Mating.
Setting [10] is: short-term, duration: 14 days, oral, gavage, F, Crj:CD, Liver: Cholesterol (CHOL), Total.
Setting [11] is: subchronic, duration: 42 days, oral, gavage, M, Crj:CD, Adrenal: Adrenal Gland Weight, Absolute + Liver: Aspartate Aminotransferase (AST) + Spleen: Spleen Weight, Relative.

“And” between values parts separate entries of the source, which are not always exact repeats. Equal entries are not always repeated. Some results are limits rather than exact numbers.

For `Cc1cc(S(=O)(=O)[O-])c(N=Nc2c([O-])c(C(=O)O)cc3ccccc23)cc1Cl.[Ca+2]` [C.I. Pigment Red 48, calcium salt (1:1)], in the series on Rattus norvegicus [1] (subchronic, gavage, M, Sprague-Dawley, Functional Observational Battery: Grip strength of hind limbs + Relative Organ Weight: Kidneys increase + Histopathology: Kidneys/ proximal …), the NOEL is 200 mg/kg-day. In the series on Rattus norvegicus [2], this molecule registered a median lethal dose (LD50) of at least 5000 mg/kg.

Consider `O=C1N(CO)C(O)C(O)N1CO` (centres undefined) [Dimethyloldihydroxyethyleneurea], for which the NOAEL with Rattus norvegicus [1] (subchronic, duration: 90 days, gavage, M/F, Fischer 344, Clinical Observation: Yellow discoloration, abdominal/anogenital region Soft stool Hypoactivity Grasping reflex decrease, Hypothermic …) stood at 3000 mg/kg-day; with Rattus norvegicus [2] (developmental, duration: 10 days, Wistar) it was 640 mg/kg-day; in the series on Rattus norvegicus [2] (reproduction developmental, duration: 14 days, Fischer 344), 4000 mg/kg-day.

Regarding `Cc1ccc(Cl)cc1` [4-Chlorotoluene], the NOAEL in the series with Rattus norvegicus [1] (short-term, duration: 29 days, gavage, M/F, Wistar, Deaths + Clinical Observation: Rough fur Reduced condition Difficulties in breathing Distended abdomen Salivation + Body Weight Changes: …) came out at 200 mg/kg-day; in the series on Rattus norvegicus [1] (subchronic, duration: 90 days, gavage, M/F, Sprague-Dawley, Deaths + Clinical Observation: Languid behavior Prostration Sensitivity to touch Tremor Epistaxis Wheezing Dyspnea + Body Weight Changes: …), 200 mg/kg-day. In addition, the LD50 with Rattus norvegicus [2] (Sprague-Dawley) is 2350 mg/kg and 1900 mg/kg.

As to `OC(C(F)(F)F)C(F)(F)F` [2H-Perfluoro-2-propanol], in the series with Rattus norvegicus [1] (subchronic, gavage, M, Sprague-Dawley, Clinical Observation: Prone position Lateral position Locomotor activity decrease + Functional Observational Battery: Prone position Lateral…), the NOEL came out at 10 mg/kg-day. For the same molecule, the LOAEL in the series with Rattus norvegicus [3] (setting [4]) is 5500 mg/m3; in the series with Rattus norvegicus [3] (acute, duration: 4 hours, inhalation, M, Brain: Brain Histopathology + Brain: Brain Pathology + Duodenum: Duodenum Histopathology + Heart: Heart Histopathology + Kidney: Kidney …), 1370 mg/m3 and 1380 mg/m3; in the series on Rattus norvegicus [3] (setting [5]), 1380 mg/m3 and 1370 mg/m3; in the series with Rattus norvegicus [3] (reproduction developmental, duration: 9 days, inhalation, M/F, generation: F1, F1: Kidney: Hydronephrosis + F1: Rib: 14th Rudimentary Rib), 207 mg/m3 and 206 mg/m3; in the series with Rattus norvegicus [3] (setting [6]) it was 1380 mg/m3 and 1370 mg/m3; with Rattus norvegicus [3] (reproduction developmental, duration: 14 days, oral, gavage, F, Crj:CD, generation: F1, F1: Whole Body: Pup Weight Relative to Litter) it was 300 mg/kg-day. The lowest-observed-adverse-effect level (LOAEL) with Rattus norvegicus [3] (setting [7]) was found to be 300 mg/kg-day; with Rattus norvegicus [3] (setting [8]), 300 mg/kg-day; in the series with Rattus norvegicus [3] (reproduction developmental, duration: 14 days, oral, gavage, M, Crj:CD, generation: F1, F1: Whole Body: Pup Weight Relative to Litter), 300 mg/kg-day; with Rattus norvegicus [3] (setting [9]), 300 mg/kg-day; in the series on Rattus norvegicus [3] (short-term, duration: 14 days, oral, gavage, F, Crj:CD, Calcium (CA) + Central Nervous System: CNS Depression + Liver: Hepatocellular Hypertrophy + Liver: Liver Weight, Relative, Recovery + …) it was 300 mg/kg-day; with Rattus norvegicus [3] (setting [10]) it was 60 mg/kg-day. Also, the LOAEL in the series with Rattus norvegicus [3] (setting [11]) was determined as 60 mg/kg-day; in the series on Rattus norvegicus [3] (subchronic, duration: 42 days, oral, gavage, M, Crj:CD, Adrenal: Adrenal Gland Weight, Relative) it was 10 mg/kg-day; in the series with Rattus norvegicus [3] (subchronic, duration: 42 days, oral, gavage, M, Crj:CD, Blood: Platelet Count (PLT) + Blood: Reticulocytes + Brain: Brain Weight, Absolute + Brain: Brain Weight, Absolute, Recovery + Central …) it was 300 mg/kg-day. Moreover, the NOAEL with Rattus norvegicus [3] (setting [4]) was 1370 mg/m3 and 1380 mg/m3; with Rattus norvegicus [3] (developmental, duration: 9 days, inhalation, M/F, generation: F1, F1: Rib: Rib, Wavy + F1: Skin: Petechial Hemorrhages + F1: Skin: Subcutaneous Hematoma, Small + F1: Skull: Hyoid Body, Unossified + F1: …) it was 1380 mg/m3 and 1370 mg/m3; in the series on Rattus norvegicus [3] (reproduction developmental, duration: 9 days, inhalation, F, generation: P0, P0: Ovary: Corpora Lutea + P0: Uterus: Mean Implantations/Litter + P0: Uterus: Resorptions, Early + P0: Uterus: Resorptions, Late + P0: …), 1380 mg/m3 and 1370 mg/m3; in the series with Rattus norvegicus [3] (setting [5]), 207 mg/m3 and 206 mg/m3; with Rattus norvegicus [3] (setting [6]) it was 207 mg/m3 and 206 mg/m3; with Rattus norvegicus [3] (reproduction developmental, duration: 14 days, oral, gavage, F, Crj:CD, generation: P0, P0: Ovary: Corpora Lutea + P0: Uterus: Estrous Cycle, Irregular + P0: Uterus: Estrous Stages/ 21 Days + P0: Uterus: Implantation + P0: …), 300 mg/kg-day. For the same molecule, the NOAEL in the series on Rattus norvegicus [3] (setting [7]) is 60 mg/kg-day; in the series on Rattus norvegicus [3] (setting [8]), 60 mg/kg-day; with Rattus norvegicus [3] (reproduction developmental, duration: 14 days, oral, gavage, M/F, Crj:CD, generation: F1, F1: Whole Body: Male Pups per Pups Sexed + F1: Whole Body: Male Pups per Pups Sexed, Live Offspring), 300 mg/kg-day; in the series on Rattus norvegicus [3] (reproduction developmental, duration: 42 days, oral, gavage, M, Crj:CD, generation: P0, P0: Whole Body: Days of Cohabitation + P0: Whole Body: Fertility Index), 300 mg/kg-day; in the series with Rattus norvegicus [3] (setting [9]) it was 60 mg/kg-day; in the series on Rattus norvegicus [3] (short-term, duration: 14 days, oral, gavage, F, Crj:CD, Adrenal: Adrenal Gland Histopathology + Adrenal: Adrenal Gland Weight, Absolute + Adrenal: Adrenal Gland Weight, Relative + Basophils + …) it was 300 mg/kg-day. The NOAEL came out at 60 mg/kg-day with Rattus norvegicus [3] (short-term, duration: 14 days, oral, gavage, F, Crj:CD, Calcium (CA) + Central Nervous System: CNS Depression + Liver: Hepatocellular Hypertrophy + Peripheral Nervous System: Aerial Righting …); 10 mg/kg-day with Rattus norvegicus [3] (setting [10]); 300 mg/kg-day in the series with Rattus norvegicus [3] (subchronic, duration: 42 days, oral, gavage, M, Crj:CD, Adrenal: Adrenal Gland Histopathology + Adrenal: Adrenal Gland Weight, Absolute, Recovery + Adrenal: Adrenal Gland Weight, Relative, …); 10 mg/kg-day with Rattus norvegicus [3] (setting [11]); 60 mg/kg-day in the series on Rattus norvegicus [3] (subchronic, duration: 42 days, oral, gavage, M, Crj:CD, Blood: Platelet Count (PLT) + Blood: Reticulocytes + Brain: Brain Weight, Absolute + Central Nervous System: CNS Depression + Kidney: Urea …).

In the case of `CC(C)C[C@H]1C(=O)N2CCC[C@H]2[C@]2(O)O[C@](NC(=O)[C@@H]3C=C4c5cccc6[nH]cc(c56)C[C@H]4N(C)C3)(C(C)C)C(=O)N12` [Ergocryptine], the NOEL with Rattus norvegicus [1] (subchronic, diet, F, Hsd/Ola/SD, Clinical Observation: Hyperkinesia, dirty hair Hunchback position Aggression + Body Weight Changes: decrease + Food Consumption: decrease + …) was determined as 0.36 mg/kg-day; in the series with Rattus norvegicus [1] (subchronic, diet, M/F, Hsd/Ola/SD, Clinical Observation: Hyperkinesia, dirty hair Hunchback position Aggression + Body Weight Changes: decrease + Food Consumption: decrease + …), 4 mg/kg-day.

Consider `Nc1nc(N)c2nc(-c3ccccc3)c(N)nc2n1` [Triamterene], for which the NOEL in the series with Rattus norvegicus [1] (subchronic, duration: 13 weeks, diet, M/F, Fischer 344, Deaths + Body Weight Changes: decrease + Food Consumption: decrease + Histopathology: Kidney-Tubule degeneration Kidney-Cast Kidney-Tubule …) came to 14.4 mg/kg-day.

`COc1cc(-c2ccc(N=Nc3c(S(=O)(=O)[O-])cc4cc(S(=O)(=O)[O-])cc(N)c4c3O)c(OC)c2)ccc1N=Nc1c(S(=O)(=O)[O-])cc2cc(S(=O)(=O)[O-])cc(N)c2c1O.[Na+].[Na+].[Na+].[Na+]` [C.I. Direct Blue 15]: the NOEL was 380 mg/kg-day in the series with Rattus norvegicus [1] (subchronic, duration: 13 weeks, drinking water, F, Fischer 344, Deaths + Body Weight Changes: decrease + Water Consumption: decrease + Absolute Organ Weight: Kidney increase + Relative Organ Weight: …) and below 190 mg/kg-day in the series on Rattus norvegicus [1] (subchronic, duration: 13 weeks, drinking water, M, Fischer 344, Deaths + Body Weight Changes: decrease + Water Consumption: decrease + Absolute Organ Weight: Kidney increase + Relative Organ Weight: …).

Turning to `C=CCCCCCCCCCCCC` [1-Tetradecene], the NOAEL with Rattus norvegicus [1] (subchronic, gavage, M, Sprague-Dawley, Absolute Organ Weight: Liver increase + Relative Organ Weight: Liver increase + Histopathology: Liver-Hepatocyte cytoplasmic vacuolation) stood at 100 mg/kg-day.

Take `CC1(C)CC(N)CC(C)(CN)C1` (centres undefined) [Isophorone diamine]: the NOAEL in the series on Rattus norvegicus [1] (subchronic, duration: 90 days, drinking water, M/F, Wistar, Body Weight Changes: Weight gain decrease + Food Consumption: decrease + Water Consumption: decrease + Absolute Organ Weight: Kidney …) was 60 mg/kg-day.

As for `CC(=O)/C=C/C=C(\C)CCC=C(C)C` [Pseudoionone], the no observed adverse effect level (NOAEL) in the series on Rattus norvegicus [1] (short-term, duration: 28 days, gavage, M/F, Wistar Han, Clinical Observation: Salivation + Body Weight Changes: Weight gain decrease + Hematology: RBC increase, HCT increase, PLT increase, APTT …) was 50 mg/kg-day.

For orientation: LD50 means the dose expected to kill half of the subjects tested. A lower LD50 goes with greater toxicity. The term NOAEL denotes the highest dose or exposure tested at which no adverse effect was seen. By LOAEL is commonly meant the lowest tested level that showed an adverse finding.
